Measurements published in PMC10258805, “Nonpeptidic Oxazole-Based Prolyl Oligopeptidase Ligands with Disease-Modifying Effects on α-Synuclein Mouse Models of Parkinson’s Disease” (Journal of Medicinal Chemistry, 2023).
Like-named read-outs stand apart in the source and are kept apart here.

Experiments:
[1] = Stability studies (NMR, MS, polarimetry, long-term monitoring); conditions: NMR samples in solution, 2-4 days at room temperature; UPLC-MS two or more weeks after isolation
recombinant porcine PREP = molecular target: T1, recombinant porcine PREP (Sus scrofa, UniProt P23687); experiment: PREP activity assay (inhibition of proteolytic activity); format: biochemical
T1 construct: made in house

[2] = system: HEK-293 cells stably expressing GFP-LC3B; experiment: Autophagic flux (GFP-LC3B reporter cells); conditions: for activity at 10 µM: Homo sapiens, HEK293, 24 h
[3] = system: ROS production in SH-SY5Y cells; experiment: ROS detection assay under oxidative stress; conditions: Homo sapiens, 3 h
[4] = system: αSyn dimerization in Neuro2A (N2A) cells; experiment: αSyn-dimerization assay (split Gaussia luciferase PCA); conditions: for activity at 10 µM: Mus musculus, N2a; for effect on αSyn dimerization (in words): 10 μM, N2A cells
[5] = molecular target: T2, PREP in mouse brain homogenate (Mus musculus, UniProt Q9QUR6); experiment: PREP inhibition measured with mouse brain homogenate; format: biochemical
T2 construct: from tissue; host or cells: mouse brain homogenate

[6] = Suc-Gly-Pro-AMC as substrate, 95% CI in brackets, read-out: IC50 (nM) (95% CI)
[7] = read-out: Autophagy at 10 uM (%)
[8] = read-out: GFP signal of the DMSO control (autophagic flux)
[9] = read-out: autophagy at 10 μM (%)
[10] = read-out: aSyn dimerization at 10 uM (%)
[11] = read-out: luminescence signal compared to the DMSO control (αSyn dimerization)
[12] = read-out: αSyn dimer. at 10 μM (%)
[13] = read-out: ROS production, % of the control
[14] = supplementary CSV, read-out: IC50

T1 sequence (P23687 whole entry): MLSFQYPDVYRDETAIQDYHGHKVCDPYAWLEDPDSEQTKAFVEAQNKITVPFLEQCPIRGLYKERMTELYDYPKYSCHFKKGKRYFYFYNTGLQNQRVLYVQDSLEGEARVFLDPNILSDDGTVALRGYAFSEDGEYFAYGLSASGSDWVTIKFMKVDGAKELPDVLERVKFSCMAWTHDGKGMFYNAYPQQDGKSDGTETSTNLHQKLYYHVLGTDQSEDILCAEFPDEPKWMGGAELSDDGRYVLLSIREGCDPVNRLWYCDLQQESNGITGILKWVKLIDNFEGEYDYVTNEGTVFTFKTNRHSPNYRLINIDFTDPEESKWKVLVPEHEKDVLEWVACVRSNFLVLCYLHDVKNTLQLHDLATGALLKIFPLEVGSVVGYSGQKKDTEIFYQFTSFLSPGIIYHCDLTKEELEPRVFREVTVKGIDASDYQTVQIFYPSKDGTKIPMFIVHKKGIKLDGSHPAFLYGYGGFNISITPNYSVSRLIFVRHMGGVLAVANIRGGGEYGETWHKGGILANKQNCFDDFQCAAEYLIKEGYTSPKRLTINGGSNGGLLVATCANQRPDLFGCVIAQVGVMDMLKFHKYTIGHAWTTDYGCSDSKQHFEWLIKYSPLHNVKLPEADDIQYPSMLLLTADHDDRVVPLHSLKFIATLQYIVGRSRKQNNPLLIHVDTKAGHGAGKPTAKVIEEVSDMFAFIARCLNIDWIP
T2 sequence (Q9QUR6 whole entry): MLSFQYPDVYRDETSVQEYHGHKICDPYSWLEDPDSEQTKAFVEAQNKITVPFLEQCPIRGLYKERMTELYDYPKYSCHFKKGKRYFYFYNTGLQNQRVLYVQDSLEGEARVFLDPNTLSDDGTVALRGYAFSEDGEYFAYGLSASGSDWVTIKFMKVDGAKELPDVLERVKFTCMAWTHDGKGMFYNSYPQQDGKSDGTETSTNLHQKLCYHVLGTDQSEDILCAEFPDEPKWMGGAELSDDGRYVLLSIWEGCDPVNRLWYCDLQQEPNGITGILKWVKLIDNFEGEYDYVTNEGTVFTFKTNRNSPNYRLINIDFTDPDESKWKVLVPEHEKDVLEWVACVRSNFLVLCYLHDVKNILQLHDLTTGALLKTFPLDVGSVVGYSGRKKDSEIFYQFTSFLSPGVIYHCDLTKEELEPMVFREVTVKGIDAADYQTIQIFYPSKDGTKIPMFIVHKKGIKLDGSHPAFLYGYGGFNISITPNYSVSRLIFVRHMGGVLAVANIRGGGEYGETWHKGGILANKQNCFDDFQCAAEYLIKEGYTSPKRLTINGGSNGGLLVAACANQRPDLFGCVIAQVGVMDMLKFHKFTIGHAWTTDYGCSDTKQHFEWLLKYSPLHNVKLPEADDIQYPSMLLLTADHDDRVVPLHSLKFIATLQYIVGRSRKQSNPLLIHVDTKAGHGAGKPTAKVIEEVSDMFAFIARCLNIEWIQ

SMILES	long-term stability (in words) [1]	IC50 (recombinant porcine PREP; [6])	activity at 10 µM [2, 7]	activity at 10 µM [2, 8]	activity at 10 µM [2, 9]	activity at 10 µM ([3]; read-out: ROS at 10 uM (%))	activity at 10 µM ([3]; read-out: ROS at 10 μM (%))	activity at 10 µM [4, 10]	activity at 10 µM [4, 11]	activity at 10 µM [4, 12]	activity at 10 µM [3, 13]	effect on αSyn dimerization (in words) [4]	IC50 (recombinant porcine PREP; read-out: IC50 value)	inhibitory activity (in words) (recombinant porcine PREP)	IC50 (recombinant porcine PREP; [14])	inhibitory activity (in words) ([5]; Table 2: mouse brain homogenate)	IC50 ([5]; measured with mouse brain homogenate, read-out: IC50 (nM) (95% CI))	GFP signal compared to the DMSO control (in words) ([2]; 10 μM, one-way ANOVA with Dunnett's post-test)
Cc1nc(CCc2cccnc2)oc1N1CCCC1C#N (stereo not drawn) [compound 70]	lowered the stability																	
Cc1nc(CCc2ccccc2)oc1N1CCC[C@H]1C#N [compound 15, (S)-1-(4-Methyl-2-phenethyloxazol-5-yl)pyrrolidine-2-carbonitrile]		692 nM	88%	≤ 88%	88 ± 4%	89%	89 ± 1%	75%	≤ 75%	75 ± 4%								
Cc1nc(CCc2cn(C(=O)C(F)(F)F)c3ccccc23)oc1N1CCC[C@H]1C#N [compound 23, (S)-1-(4-Methyl-2-(2-(1-(2,2,2-trifluoroacetyl)-1H-indol-3-yl)ethyl)oxazol-5-yl)pyrrolidine-2-carbonitrile]		120 nM	94%		94 ± 3%	84%	84 ± 7%	87%		87 ± 11%	< 88%	comparable effect as KYP-2047						
COc1ccc(CCCc2nc(C)c(N3CCC[C@H]3C#N)o2)cc1OC [compound 19, (S)-1-(2-(3-(3,4-Dimethoxyphenyl)propyl)-4-methyloxazol-5-yl)pyrrolidine-2-carbonitrile]		115 nM	93%		93 ± 2%	70%	70 ± 9%	98%		98 ± 17%	70%							
COc1ccc(CCCc2nc(C)c(N3CCC[C@H]3C#N)o2)cc1 [compound 18, (S)-1-(2-(3-(4-Methoxyphenyl)propyl)-4-methyloxazol-5-yl)pyrrolidine-2-carbonitrile]		65 nM	98%		98 ± 1%	86%	86 ± 6%	100%		100 ± 5%	< 88%							
CC(C)c1nc(CCCc2ccccc2)oc1N1CCC[C@H]1C#N [compound 7, 4-Phenylbutanoyl-(4-isopropyl-2-oxazol-5-yl)-2(S)-cyanopyrrolidine]		156 nM	82%	≤ 88%	82 ± 8%	81%	81 ± 5%	82%	80 to 85%	82 ± 13%	< 88%		156 to 445 nM					
CSCCc1nc(CCCc2ccccc2)oc1N1CCC[C@H]1C#N [compound 11, (S)-1-(4-(2-(Methylthio)ethyl)-2-(3-phenylpropyl)oxazol-5-yl)pyrrolidine-2-carbonitrile]		445 nM	92%		92 ± 5%	101%	101 ± 8%	90%		90 ± 8%		comparable effect as KYP-2047	156 to 445 nM					
N#C[C@@H]1CCCN1c1oc(CCCc2ccccc2)nc1-c1ccccc1 [compound 10, 4-Phenylbutanoyl-(4-phenyl-2-oxazol-5-yl)-2(S)-cyanopyrrolidine]			104%		104 ± 6%	77%	77 ± 8%	97%		97 ± 10%	75%			further reduced inhibitory activities	17400 nM			
Cc1nc(CCCc2ccccn2)oc1N1CCCC1C#N (stereo not drawn) [compound 69]	lowered the stability																	
Cc1nc(CCOc2ccccc2)oc1N1CCC[C@H]1C#N [compound 17, (S)-1-(4-Methyl-2-(2-phenoxyethyl)oxazol-5-yl)pyrrolidine-2-carbonitrile]		1160 nM	94%		94 ± 6%	70%	70 ± 8%	120%		120 ± 8%	70%							
C[C@H](NC(=O)CCCc1ccccc1)C(=O)N1CCC[C@H]1C#N [compound 2, reference compound]		3.3 nM	86%		86 ± 6%	92%	92 ± 7%	105%		105 ± 14%								
Cc1nc(CCc2c[nH]c3ccccc23)oc1N1CCC[C@H]1C#N [compound 22, (S)-1-(2-(2-(1H-Indol-3-yl)ethyl)-4-methyloxazol-5-yl)pyrrolidine-2-carbonitrile]		890 nM	97%		97 ± 3%	82%	82 ± 11%	72%	≤ 75%	72 ± 2%	< 88%							
Cc1nc(C(=O)CCc2ccccc2)oc1N1CCCC1 [compound 25, 1-(4-Methyl-5-(pyrrolidin-1-yl)oxazol-2-yl)-3-phenylpropan-1-one]			95%		95 ± 10%	105%	105 ± 8%	110%		110 ± 6%						very weak inhibitor	90000 nM	
c1ccc(CCCc2ncc(-c3ccccc3)o2)cc1 [compound 29, 5-Phenyl-2-(3-phenylpropyl)oxazole]			90%		90 ± 4%	93%	93 ± 11%	90%		90 ± 6%				strongly reduced inhibitory activities	91600 nM			
Cc1nc(CCCc2cccs2)oc1N1CCC[C@H]1C#N [compound 21, (S)-1-(4-Methyl-2-(3-(2-thienyl)propyl)oxazol-5-yl)pyrrolidine-2-carbonitrile]		18 nM	72%	≤ 88%	72 ± 3%	91%	91 ± 6%	101%		101 ± 8%								significantly decreased the signal
Cc1nc(-c2ccccc2)oc1N1CCC[C@H]1C#N [compound 13, (S)-1-(4-Methyl-2-phenyloxazol-5-yl)pyrrolidine-2-carbonitrile]		7940 nM	92%		92 ± 1%	86%	86 ± 13%	80%	80 to 85%	80 ± 9%	< 88%							
CC(C)Cc1nc(CCCc2ccccc2)oc1N1CCC[C@H]1C#N [compound 8, 4-Phenylbutanoyl-(4-isobutyl-2-oxazol-5-yl)-2(S)-cyanopyrrolidine]		4580 nM	81%	≤ 88%	81 ± 11%	83%	83 ± 7%	80%	80 to 85%	80 ± 6%	< 88%							
N#Cc1nc(CCCc2ccccc2)oc1N1CCC[C@H]1C#N [compound 28, (S)-5-(2-Cyanopyrrolidin-1-yl)-2-(3-phenylpropyl)oxazole-4-carbonitrile]			97%		97 ± 5%	93%	93 ± 11%	109%		109 ± 5%				very weak inhibitors	76600 nM			
c1ccc(CCCc2ncc(-c3cccs3)o2)cc1 [compound 30, 2-(3-Phenylpropyl)-5-(2-thienyl)oxazole]			98%		98 ± 10%	96%	96 ± 9%	86%	80 to 85%	86 ± 8%				strongly reduced inhibitory activities	37300 nM			
